Source: ChEMBL document CHEMBL6127038, “How many organic small molecules might be used to treat COVID-19? From natural products to synthetic agents” (Eur J Med Chem, 2024)

Assays:
SARS-CoV-2 [1] = test: Antiviral activity against SARS-CoV-2 infected in human Calu-3 cells assessed as reduction in viral growth measured after 48 hrs by qRT-PCR analysis; assay type: functional, organism-based; conditions: Severe acute respiratory syndrome coronavirus 2, Calu-3, 48 h
[2] = biological target: T1, Replicase polyprotein 1ab (Severe acute respiratory syndrome coronavirus 2, UniProt P0DTD1); test: Inhibition of SARS-CoV-2 RdRp
[3] = Inhibition of DENV-2 NS2B/NS3 protease; set-up: species or system dengue virus type 2
[4] = biological target: Replicase polyprotein 1ab (Human coronavirus 229E, UniProt P0C6X1); test: Inhibition of HCov-229E 3CLpro by FRET assay
SARS-CoV-2 [5] = test: Antiviral activity against wild type SARS-CoV-2 Omicron BA.5 infected in HEK293T cells assessed as reduction in viral replication measured after 48 hrs by Nano-Glo luciferase assay; assay type: functional, organism-based; conditions: Severe acute respiratory syndrome coronavirus 2, HEK-293T
SARS-CoV-2 [6] = test: Antiviral activity against wild type SARS-CoV-2 Omicron BA.1 infected in HEK293T cells assessed as reduction in viral replication measured after 48 hrs by Nano-Glo luciferase assay; assay type: functional, organism-based; conditions: Severe acute respiratory syndrome coronavirus 2, Omicron BA.1, HEK-293T
SARS-CoV-2 [7] = test: Antiviral activity against SARS-CoV-2 infected in human HPAEpiC cells assessed as reduction in viral growth; assay type: functional, organism-based; conditions: Severe acute respiratory syndrome coronavirus 2, HPAEpiC
[8] = biological target: T1, Replicase polyprotein 1ab; test: Inhibition of SARS-CoV-2 3CLPro
SARS-CoV-2 [9] = test: Anti-viral activity against SARS-CoV-2 infected in human A549 cells expressing hACE2 by firefly reporter assay; assay type: functional, organism-based; conditions: Severe acute respiratory syndrome coronavirus 2, A549
Procathepsin L = Procathepsin L (Homo sapiens, UniProt P07711); test: Inhibition of cathepsin L (unknown origin)
Sequence of Procathepsin L (P07711 whole entry): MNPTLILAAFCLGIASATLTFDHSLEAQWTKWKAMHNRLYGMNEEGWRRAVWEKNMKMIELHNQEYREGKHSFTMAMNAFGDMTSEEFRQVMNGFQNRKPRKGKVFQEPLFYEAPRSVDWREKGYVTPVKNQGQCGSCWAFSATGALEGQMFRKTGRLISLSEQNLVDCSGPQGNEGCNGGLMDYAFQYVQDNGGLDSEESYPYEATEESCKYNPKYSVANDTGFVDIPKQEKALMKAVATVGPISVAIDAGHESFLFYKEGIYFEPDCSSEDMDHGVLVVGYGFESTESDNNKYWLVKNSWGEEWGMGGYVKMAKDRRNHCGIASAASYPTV

Sequence of Replicase polyprotein 1ab (Human coronavirus 229E, UniProt P0C6X1) (P0C6X1 2966-3267 limits assumed): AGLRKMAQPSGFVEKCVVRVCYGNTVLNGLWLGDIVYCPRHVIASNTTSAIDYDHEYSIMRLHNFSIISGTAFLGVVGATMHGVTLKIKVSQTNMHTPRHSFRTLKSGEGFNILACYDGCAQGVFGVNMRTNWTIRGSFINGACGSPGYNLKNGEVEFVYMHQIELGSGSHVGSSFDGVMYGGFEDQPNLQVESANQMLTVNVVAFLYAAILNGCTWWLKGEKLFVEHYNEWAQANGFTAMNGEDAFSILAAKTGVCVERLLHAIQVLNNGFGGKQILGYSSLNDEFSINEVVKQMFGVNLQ

CCC(CC)COC(=O)[C@H](C)N[P@](=O)(OC[C@H]1O[C@@](c2noc(C(F)(F)F)n2)(c2ccc3c(N)ncnn23)[C@@H]2OC(C)(C)O[C@@H]21)Oc1ccccc1
IC50 (SARS-CoV-2 [1]): 19.3 µM

CCCCC/C=C\C/C=C\CCCCCCCCOC(=O)[C@H](C)NP(=O)(OC[C@H]1O[C@@](C#N)(c2ccc3c(N)ncnn23)[C@H](O)[C@@H]1O)Oc1ccccc1 (stereo partly specified)
EC50 [2]: 440 nM

C=C1NC(=O)[C@]2(C)CSC(=N2)c2csc(n2)[C@]2(C)CSC(=N2)[C@@H]([C@@H](C)CC)NC(=O)[C@@H](C)NC(=O)/C(=C\C(C)C)COC(=O)c2csc(n2)[C@H](C(C)C)N(C)C(=O)[C@H](COC)NC1=O
IC50 [3]: 560 nM | IC50 [4]: 2390 nM

CCCCCCCCCC[C@@H]1CCC[C@]2(C=C(CO)[C@H]3CC(=O)C(C)=C[C@H]3O2)O1
EC50 (SARS-CoV-2 [5]): 160 nM | EC50 (SARS-CoV-2 [6]): 100 nM

C=C1C(=O)[C@@]23C(=O)[C@@H](O)[C@@H]4C(C)(C)C[C@@H]5C(=O)OCC54[C@@H]2CC[C@@H]1[C@H]3OC(=O)C1Cc2ccccc2C1 (stereo partly specified)
EC50 (SARS-CoV-2 [7]): 19 nM

CO[C@@H]1C[C@H](O[C@H]2C[C@](C)(CO)[C@@H]3CC[C@@]4(C)[C@@H]5CC[C@@H]6[C@H](CC(=O)[C@]7(C)C8=COC(N[C@H](C)C(C)C)=N[C@]8(C)[C@@H](O)[C@@H]8O[C@@]687)[C@@]5(C)CC[C@@H]4[C@@]3(C)[C@@H]2O)O[C@H](C)[C@H]1O
IC50 [8]: 74 nM | IC50 [4]: 6.6 nM

CCOC(=O)/C=C/[C@H](C[C@@H]1CCNC1=O)NC(=O)[C@H](Cc1ccccc1)NC(=O)[C@@H](N)Cc1ccccc1
IC50 (SARS-CoV-2 [9]): 8.2 nM | IC50 (Procathepsin L): 60 nM
